Source: US20230218604A1, “PPARy AGONIST FOR TREATMENT OF PROGRESSIVE [sequence] PALSY” (Coherus Biosciences, Inc., priority 2022, published 2023)
Where “and” joins values, the source holds several entries; their conditions need not be identical. Equal values may be shown once. Entries after “also recorded” stand apart in the source; their conditions may differ.

Assays:
adiponectin [1] = test: 24-week randomized, double-blind, placebo-controlled study in type 2 diabetes: serum adiponectin levels; type: in vivo, human; settings: for Mean Adiponectin, Week 24 / Mean Change in adiponectin from baseline (Week 0) to Week 24 / Mean Adiponectin, Week 0: (SD); for Mean Change in adiponectin from baseline (Week 0) to Week 24: LOCF; for Mean Adiponectin, Week 0: baseline, type 2 diabetes subjects
Procedure: A randomized, double-blind, placebo-controlled, 24-week study was conducted in which adiponectin levels were measured. […] 367 subjects with type 2 diabetes (TD2)—a disease in which patient adiponectin levels are reduced—were randomly assigned to receive either 0.5, 1, 2 or 3 milligrams (“mg”) of INT131 besylate, 45 mg of pioglitazone or placebo daily for 24 weeks. To measure adiponectin levels blood was drawn at Weeks 0, 2, 6, 12 and 24. At baseline (Week 0) mean adiponectin levels were 1.94 micrograms per milliliter (“µg/mL”). The mean adiponectin levels at baseline and Week 24, and the mean change in adiponectin levels from baseline (Week 0) to Week 24 are disclosed in Table 1, below. The standard deviation for samples tested in each group is listed in (parenthesis). Mean baseline adiponectin values were similar for the treatment groups.

HbA1c [2] = test: 24-week randomized, double-blind, placebo-controlled study in type 2 diabetes: HbA1c levels; type: in vivo, human; settings: 24 weeks
adiponectin [3] = test: 14-day study of serum adiponectin levels in healthy subjects; type: in vivo, human
Procedure: A study was conducted to determine the effect of INT131 on serum adiponectin levels. Thirty healthy subjects were randomly selected to receive either placebo, 0.1 mg INT131, 1 mg INT131 or 4 mg INT131 daily for 14 days. To measure adiponectin levels blood was drawn at Days 1, 4, 8 and 14.

[4] = RRMS study: monthly contrast MRI, cumulative CE lesions and new/enlarged T2 lesions; type: in vivo, human; settings: for Reduction of CE lesion burden vs. placebo: 6 months; for Cumulative CE lesions over 6 months: complete case analysis
Procedure: (§1) 227 treatment-naive adult subjects (mean age 31 [range 18-50]; 65% female) were randomized into one of three arms: oral CHS-131 at 3 mg (n=76); oral CHS-131 at 1 mg (n=76); placebo (n=75), at 21 sites in Russia. 97% completed Part 1. Inclusion criteria: Relapsing Remitting Multiple Sclerosis (RRMS) for ≤3 years, ≥1 gadolinium-positive lesion within 1-year of enrollment, and an EDSS ≤ 6 at screening. The patients underwent monthly MRI examinations with contrast to identify new inflammatory lesions. All MRIs were read blinded at the Buffalo Neuroimaging Center (Buffalo, NY). In addition to CE lesions the images were scored for cumulative new/enlarged T2 lesions, and serial cortical and whole brain volumetric analysis.

[5] = RRMS study: serial cortical and whole brain volumetric MRI analysis; type: in vivo, human; settings: 3 mg daily, 6 months
Procedure: as §1

HbA1c [6] = settings: DePaoli et al. Diabetes Care 2014; cited from earlier work
[7] = subjects taking INT131 vs those taking pioglitazone; DePaoli et al. 2014; cited from earlier work
[8] = in vivo; cited from earlier work

**Q.** With O=S(=O)(Nc1cc(Cl)c(Oc2cnc3ccccc3c2)c(Cl)c1)c1ccc(Cl)cc1Cl [INT131] as the compound, how does the “Mean Adiponectin, Week 24” value (adiponectin [1]; 0.5 mg INT131 daily for 24 weeks) read?
**A.** Its value is 2.28 (1.540) µg/mL.

**Q.** What about the “Mean Change in adiponectin from baseline (Week 0) to Week 24” value (“Mean Change in adiponectin from baseline” for short) (adiponectin [1]; 0.5 mg INT131 daily) of the same compound?
**A.** Its value is 0.56 µg/mL and 0.56 (0.906) µg/mL.

**Q.** What about the “Mean Adiponectin, Week 0” value (adiponectin [1]; 0.5 mg INT131 group) of the same compound?
**A.** Its value is 1.73 (1.190) µg/mL.

**Q.** And the “Adiponectin levels, treatment comparison with pioglitazone 45 mg” value (adiponectin [1]; 0.5 mg, 1 mg and 3 mg doses of INT131, p≤0.0408)?
**A.** The value was “statistically significant”.

**Q.** What about the “Mean Adiponectin, Week 24” value (adiponectin [1]; 1 mg INT131 daily for 24 weeks) of the same compound?
**A.** The value was 3.15 (2.533) µg/mL.

**Q.** What about the “Mean Change in adiponectin from baseline” value (adiponectin [1]; 1 mg INT131 daily) of the same compound?
**A.** Its value is 1.28 µg/mL and 1.28 (1.882) µg/mL.

**Q.** What about the “Mean Adiponectin, Week 0” value (adiponectin [1]; 1 mg INT131 group) of the same compound?
**A.** Its value is 1.87 (1.217) µg/mL.

**Q.** And the “Adiponectin levels, treatment comparison with placebo” value (adiponectin [1]; 1 mg, 2 mg and 3 mg doses of INT131, p≤0.0109)?
**A.** Its value is “statistically significant increase”.

**Q.** What about the “Mean Adiponectin, Week 24” value (adiponectin [1]; 2 mg INT131 daily for 24 weeks) of the same compound?
**A.** Its value is 5.14 (3.650) µg/mL.

**Q.** What about the “Mean Change in adiponectin from baseline” value (adiponectin [1]; 2 mg INT131 daily) of the same compound?
**A.** Its value is 3.27 µg/mL and 3.27 (3.002) µg/mL.

**Q.** What about the “Mean Adiponectin, Week 0” value (adiponectin [1]; 2 mg INT131 group) of the same compound?
**A.** The value was 1.87 (1.098) µg/mL.

**Q.** What about the “Mean Adiponectin, Week 24” value (adiponectin [1]; 3 mg INT131 daily for 24 weeks) of the same compound?
**A.** Its value is 5.83 (4.826) µg/mL.

**Q.** And the “Mean Change in adiponectin from baseline” value (adiponectin [1]; 3 mg INT131 daily)?
**A.** Its value is 3.83 µg/mL and 3.83 (4.313) µg/mL.

**Q.** What about the “Mean Adiponectin, Week 0” value (adiponectin [1]; 3 mg INT131 group) of the same compound?
**A.** The value was 2.00 (1.215) µg/mL.

**Q.** And the “Reduction of HbA1c levels as compared to placebo” value (HbA1c [2]; 1, 2 and 3 mg doses of INT131 daily)?
**A.** The value was “statistically significant reduction”.

**Q.** And the “Reduction of HbA1c levels compared with 45 mg of pioglitazone” value (HbA1c [2]; 2 and 3 mg doses of INT131 daily)?
**A.** The value was “at least as well as 45 mg of pioglitazone”.

**Q.** And the “Change in serum adiponectin levels, Day 1 to Day 14 and over placebo” value (adiponectin [3]; 0.1 mg INT131 daily for 14 days)?
**A.** Its value is “no significant change”.

**Q.** And the “Change in serum adiponectin levels over placebo and from Day 1 to Day 14” value (adiponectin [3]; 1 mg or 4 mg INT131 daily for 14 days)?
**A.** Its value is “significant change”.

**Q.** And the “Cumulative CE lesions over 6 months, LSMean” value ([4]; 1 mg oral)?
**A.** The value was 5.15.

**Q.** And the “Reduction of CE lesion burden vs. placebo” value ([4]; 1 mg oral, p=ns)?
**A.** Its value is 21%.

**Q.** And the “Cumulative CE lesions over 6 months” value ([4]; 1 mg oral)?
**A.** The value was 7.6.

**Q.** And the “Reduction of new/enlarged T2 lesions compared to placebo” value ([4]; 1 mg, p=ns)?
**A.** The value was 14%.

**Q.** And the “Cumulative CE lesions over 6 months, LSMean” value ([4]; 3 mg daily oral)?
**A.** The value was 3.10.

**Q.** And the “Reduction of CE lesion burden vs. placebo” value ([4]; 3 mg daily oral, p=0.003)?
**A.** The value was 52%.

**Q.** What about the “Cumulative CE lesions over 6 months” value ([4]; 3 mg daily oral) of the same compound?
**A.** Its value is 4.2 lesions.

**Q.** What about the “Reduction of new/enlarged T2 lesions compared to placebo” value ([4]; 3 mg, p=0.0767) of the same compound?
**A.** The value was 30%.

**Q.** And the “Less cortical volume loss compared to placebo” value [5]?
**A.** The value was 34.2%.

**Q.** What about the “Less whole brain volume loss compared to placebo” value [5] of the same compound?
**A.** The value was 50%.

**Q.** And the “Efficacy in reducing HbA1c levels versus 45 mg of pioglitazone” value (HbA1c [6])?
**A.** The value was “equally efficacious”.

**Q.** What about the “Side effects versus pioglitazone” value [7] of the same compound?
**A.** Its value is “less edema, weight gain, and hemodilution”.

**Q.** What about the “Crossing of the blood brain barrier” value [8] of the same compound?
**A.** Its value is “more readily than other PPARγ agonists; also recorded: readily crosses the blood brain barrier”.

**Q.** With CCc1ccc(CCOc2ccc(CC3SC(=O)NC3=O)cc2)nc1 (centres unmarked) [pioglitazone, reference compound] as the compound, how does the “Mean Adiponectin, Week 24” value (adiponectin [1]; 45 mg pioglitazone daily for 24 weeks) read?
**A.** The value was 5.28 (3.222) µg/mL.

**Q.** And the “Mean Change in adiponectin from baseline” value (adiponectin [1]; 45 mg pioglitazone daily)?
**A.** The value was 2.96 µg/mL.

**Q.** What about the “Mean Change in adiponectin from baseline” value (adiponectin [1]; 45 mg pioglitazone daily, listed as Pioglitazone) of the same compound?
**A.** Its value is 2.96 (2.618) µg/mL.

**Q.** And the “Mean Adiponectin, Week 0” value (adiponectin [1]; 45 mg pioglitazone group)?
**A.** Its value is 2.32 (2.185) µg/mL.
